Eight compounds from PubChem BioAssay (NCI) can be followed below.

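Step 1: Grow cells in 96-well plates. Step 2: Expose to compound for 48 hours at 5 concentrations. Step 3: Interpolate endpoints linearly; if unreached, use highest concentration. The concentration for full growth arrest is given as TGI.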

Test systems include MOLT-4 leukemia; HL-60(TB) leukemia; OVCAR-4 ovarian; UO-31 renal; NCI-H522 lung; RXF 393 renal; IGROV1 ovarian; MDA-N; UACC-62 melanoma; CAKI-1 renal; SK-OV-3 ovarian; TK-10 renal; MALME-3M melanoma; M14 melanoma; HCT-15 colon; HOP-62 NSCLC; EKVX NSCLC; SF-539 CNS; SNB-75 CNS.
Experiment in all cases: NCI anticancer screen, dose series, 48 h

Turning to `COc1ccc(C2Oc3c(cccc3OC)C=C2[N+](=O)[O-])cc1` (configuration not stated), the TGI was 6.86 µM in the assay with MOLT-4 leukemia; more than 100 µM with HL-60(TB) leukemia; 10.1 µM in the assay on OVCAR-4 ovarian; 3.14 µM with UO-31 renal; 3.02 µM in the assay on NCI-H522 lung; 2.7 µM in the assay on RXF 393 renal. Besides, the TGI in the assay on IGROV1 ovarian was found to be 9.3 µM; in the assay on MDA-N, 13.1 µM; in the assay on UACC-62 melanoma, 5.72 µM; in the assay with CAKI-1 renal it was 4.31 µM; in the assay on SK-OV-3 ovarian, 15.3 µM; with TK-10 renal it was 7.5 µM. For the same compound, the TGI in the assay with MALME-3M melanoma is 10 µM; in the assay with M14 melanoma it was 2.15 µM; in the assay with HCT-15 colon it was 5.81 µM; in the assay on HOP-62 NSCLC, 5.8 µM; with EKVX NSCLC, 25.6 µM.
As for `[O-][n+]1onc2c1-c1nonc1CC2`, the TGI with MOLT-4 leukemia is more than 100 µM; in the assay with HL-60(TB) leukemia, 96.2 µM; with SF-539 CNS, 53.4 µM; in the assay on OVCAR-4 ovarian, 74.1 µM; in the assay on UO-31 renal, more than 100 µM; with NCI-H522 lung it was 95.1 µM. Also, the TGI in the assay on RXF 393 renal is 69.5 µM; in the assay on IGROV1 ovarian it was more than 100 µM; in the assay on MDA-N, more than 100 µM; in the assay with UACC-62 melanoma, more than 100 µM; with CAKI-1 renal, more than 100 µM; in the assay with SK-OV-3 ovarian it was more than 100 µM. The TGI in the assay with TK-10 renal is 56.4 µM; in the assay on MALME-3M melanoma, 54 µM; in the assay on M14 melanoma, 89.8 µM; with HCT-15 colon, more than 100 µM; in the assay with HOP-62 NSCLC, 61.2 µM; with EKVX NSCLC, 81.6 µM.
On to `O=C1c2cccnc2-c2nccc3ccnc1c23`, for which the TGI with MOLT-4 leukemia stood at 0.756 µM; in the assay with HL-60(TB) leukemia, 0.185 µM; with SF-539 CNS, 4.81 µM; in the assay with OVCAR-4 ovarian, 5.46 µM; in the assay on UO-31 renal it was 3.16 µM; with NCI-H522 lung it was 0.666 µM. The TGI amounted to 2.52 µM with RXF 393 renal; 5.92 µM in the assay on SNB-75 CNS; 2.12 µM with IGROV1 ovarian; 0.465 µM in the assay on MDA-N; 1.88 µM in the assay on UACC-62 melanoma; 1.32 µM with CAKI-1 renal. For the same compound, the TGI with SK-OV-3 ovarian came to 2.9 µM; with MALME-3M melanoma, 3.28 µM; in the assay with M14 melanoma, 2.43 µM; in the assay with HCT-15 colon it was 1.8 µM; with HOP-62 NSCLC it was 7.95 µM; with EKVX NSCLC it was 3.75 µM.
Consider `CCOC(=O)C1C(=O)CC(C)(O)C(C(=O)OCC)C1c1ccc(OC)cc1` (configuration not stated), for which the TGI in the assay with MOLT-4 leukemia, in the assay on HL-60(TB) leukemia, in the assay with SF-539 CNS, with OVCAR-4 ovarian, with UO-31 renal and in the assay with NCI-H522 lung was more than 100 µM each time. In addition, the TGI in the assay on RXF 393 renal, in the assay with SNB-75 CNS, in the assay with IGROV1 ovarian, with MDA-N, with UACC-62 melanoma and with CAKI-1 renal was more than 100 µM throughout. The TGI with TK-10 renal, in the assay with MALME-3M melanoma, in the assay on M14 melanoma, with HCT-15 colon, in the assay with HOP-62 NSCLC and in the assay with EKVX NSCLC was more than 100 µM in each case.
Regarding `c1ccc(-c2cc(-c3cc(-c4ccccc4)no3)on2)cc1`, the TGI in the assay with MOLT-4 leukemia was 81.3 µM; with HL-60(TB) leukemia, more than 100 µM; in the assay on SF-539 CNS, 33.4 µM; with OVCAR-4 ovarian, 85.9 µM; in the assay on UO-31 renal, more than 100 µM; in the assay on NCI-H522 lung it was more than 100 µM. Further, the TGI is more than 100 µM in the assay on RXF 393 renal; more than 100 µM with IGROV1 ovarian; more than 100 µM in the assay with MDA-N; more than 100 µM in the assay on UACC-62 melanoma; more than 100 µM in the assay on CAKI-1 renal; 89.9 µM in the assay on SK-OV-3 ovarian. The TGI in the assay on TK-10 renal, in the assay on MALME-3M melanoma, in the assay with M14 melanoma, in the assay on HCT-15 colon, in the assay on HOP-62 NSCLC and with EKVX NSCLC was more than 100 µM in each case.
Regarding `CC(C)(C)OC(=O)N1C(=O)OC[C@@H]2C=C[C@@H]21`, the TGI in the assay with MOLT-4 leukemia, in the assay with HL-60(TB) leukemia, in the assay on SF-539 CNS, in the assay on OVCAR-4 ovarian, in the assay on NCI-H522 lung and with RXF 393 renal was more than 100 µM each time. The TGI with IGROV1 ovarian, in the assay with MDA-N, in the assay with UACC-62 melanoma, with CAKI-1 renal, in the assay on SK-OV-3 ovarian and in the assay on TK-10 renal was more than 100 µM each time. For the same compound, the TGI in the assay with MALME-3M melanoma, with M14 melanoma, in the assay on HCT-15 colon, in the assay on HOP-62 NSCLC and with EKVX NSCLC was more than 100 µM throughout.
Regarding `CCC(CCCCC1CC[C@H]2CC(=O)C[C@@H]12)OC` (some centres not stated), the TGI in the assay with MOLT-4 leukemia, with HL-60(TB) leukemia, in the assay with SF-539 CNS, in the assay with OVCAR-4 ovarian, in the assay on NCI-H522 lung and with RXF 393 renal was more than 100 µM throughout. Moreover, the TGI with SNB-75 CNS, with IGROV1 ovarian, in the assay on MDA-N, in the assay with UACC-62 melanoma, with CAKI-1 renal and with SK-OV-3 ovarian was more than 100 µM in each case. Besides, the TGI in the assay on TK-10 renal, with MALME-3M melanoma, with M14 melanoma, in the assay on HCT-15 colon, in the assay on HOP-62 NSCLC and in the assay on EKVX NSCLC was more than 100 µM in each case.
As to `Cc1cc(-c2ccc(Cl)cc2)c(C#N)c(=S)n1C1OC(CO)C(O)C(O)C1O` (configuration not stated), the TGI with MOLT-4 leukemia, in the assay with HL-60(TB) leukemia, in the assay on SF-539 CNS, with OVCAR-4 ovarian, in the assay on NCI-H522 lung and in the assay on RXF 393 renal was more than 100 µM in each case. The TGI in the assay on SNB-75 CNS was 78.7 µM; in the assay on IGROV1 ovarian, more than 100 µM; with MDA-N, more than 100 µM; with UACC-62 melanoma, more than 100 µM; in the assay on CAKI-1 renal, more than 100 µM; in the assay on SK-OV-3 ovarian, more than 100 µM. Further, the TGI in the assay on TK-10 renal, with MALME-3M melanoma, with M14 melanoma, with HCT-15 colon, in the assay with HOP-62 NSCLC and in the assay on EKVX NSCLC was more than 100 µM in each case.
